Assay results reported in patent US5525627A, “Esters of acyl carnitines with long-chain aliphatic alcohols and pharmaceutical compositions containing same having antimycotic activity” (Sigma-Tau Industrie Farmaceutiche Riunite S.p.A., priority 1992, dated 1996).
“And” between values parts separate entries of the source, which are not always exact repeats. Equal entries are not always repeated.

What was measured:
[1] = system: C. albicans ISS 1; assay: Experimental subcutaneous infection with Candida albicans in mice; assay type: in vivo, Candida albicans in mice (male CD1 outbred); details: individual samples 1-4; 50 mcg s.c. at 0, 48 and 96 hours (150 total mcg per animal)
Procedure: Male CD1 outbred mice (IFFA Credo) aged 8 weeks were used (4 animals per group).
A pathogenic strain of Candida was used, namely C. albicans ISS 1.
The infected animals were treated with ST 722 dissolved in saline, and Miconazole diluted in saline from a stock solution containing 1% Dimethyl Formamide.
From an overnight broth culture of C. albicans in Sabouraud broth, a fungal suspension was prepared in sterile saline containing 5.0×10^5 cells/mi. An inoculum of 0.5 ml of this suspension was injected subcutaneously into the abdominal wall of each animal.
The compounds were then administered by subcutaneous injection in the same area of the fungal challenge at the dose of 50 mcg (in 0.2 ml of saline) immediately after the inoculum and following 48 and 96 hours (150 total mcg per animal).
Then, 48 hours following the last treatment (6 days after the challenge with Candida), the animals were sacrificed, and the abdominal wall as well as the peritoneum were dissected out.
The excised tissues were then homogenized in 5 ml of sterile saline with a Potter-Elvehjem tissue grinder. The resulting suspensions, appropriately diluted, where plated onto Petri dishes containing a selective agar medium (BIGGY agar), which allows to easily detect the yeast Colony Forming Units (CFU/ml).
The number of colonies scored in a series of dilutions for each single sample consents to calculate the number of yeast cells present in the infected tissue sample as follows: [formula] Where Zi is the number of dilutions performed, Ni is the number of plates prepared for each dilution, and Ci is the total number of yeast cells scored in each dilution.

[2] = system: Trichophyton rubrum (IHEM 4274); assay: MIC for dermatophytic fungi; assay type: cell-based; details: 35° C., 96 hours, read-out: Minimal Inhibitory Concentration (MIC)
Procedure: (§1) The following strains were used: Trichophyton menthagrophytes ATCC 9533, Trichophyton rubrum IHEM 4274, Microsporum canis IHEM 3522, Epydermophyton floccosum IHEM 3495. The tested substances were: ST 722, ST 1033, ST 1037, ST 1050, ST 1051, ST 1052,. ST 1053.
(§2) The assay was performed following the same procedure described for the yeasts, by using 7-day fungi cultures grown at 30° C. in Potato Dextrose agar, and harvested with Sabouraud broth and Tween 80 (0.5%).
(§3) After washing with Yeast Nitrogen Base, supplemented with asparagine and glucose (as carbon source), the fungal suspension was fragmented using a tissue grinder until the largest clumps or aggregates were undetectable within the grinder. This fungal suspension was then appropriately diluted in YNB to yield a concentration of 2.0×10^5 infective particles/ml (small mycelium fragments, micro-and macroaleuriospores).
(§4) Volumes of 100 μl both of the fungal suspensions and substance solutions, two-fold serially diluted in assay medium, were distributed into each well of a microtiter plate (96 wells, round bottom), which was incubated at 35° C. for 96 hours.

[3] = system: Trichophyton menthagrophites (ATCC 9533); assay: MIC for dermatophytic fungi; assay type: cell-based; details: ATCC9533, 35° C., 96 hours, read-out: Minimal Inhibitory Concentration (MIC)
Procedure: as §1, §2, §3, §4

[4] = system: Microsporum canis (IHEM 3522); assay: MIC for dermatophytic fungi; assay type: cell-based; details: 35° C., 96 hours, read-out: Minimal Inhibitory Concentration (MIC)
Procedure: as §1, §2, §3, §4

[5] = system: Epidermophyton floccosum (IHEM 3495); assay: MIC for dermatophytic fungi; assay type: cell-based; details: 35° C., 96 hours, read-out: Minimal Inhibitory Concentration (MIC)
Procedure: as §1, §2, §3, §4

[6] = system: filamentous fungi; assay: MIC / MFC for filamentous fungi, all strains; assay type: cell-based, Aspergillus, Fusarium, Mucor, Penicillium; details: versus susceptible strains; read-out: Mean MIC values
Text: (§5) The following strains were used (the number of strains is in brackets): Aspergillus (5); Fusarium (1); Mucor (1); Penicillium (1).
(§6) The tested substances were: ST 712, ST 722, ST 982, ST 983, ST 1000, ST 1001, ST 1032, ST 1033, ST 1034, ST 1036, ST 1037, ST 1038, ST 1050, ST 1051, ST 1052, ST 1053. The assay medium was the same as the one used in the previous study. The conidia from 72-hour cultures in Sabouraud agar, collected by washing with Sabouraud medium and Tween 80 (one drop of Tween per 10 ml of medium), were utilized as inoculum (5.0×10^4 CFU/ml).
(§7) The assay was performed using the same procedure as described for yeast-like fungi.
(§8) Also the evaluation of MIC and MFC was as reported previously.

[7] = system: Candida albicans (ISS 1); assay: MIC for yeast and yeast-like strains; assay type: cell-based; details: 48 hours, 35° C., read-out: Minimal Inhibitory Concentration (MIC)
Procedure: (§9) The following strains were used (the number of strains is in brackets): Candida (13); Criptococcus (2); Saccharormyces (1); Torulopsis (1).
(§10) Yeast Nitrogen Base supplemented with 0.15% asparagine and 1.0% glucose (as carbon source) was the medium utilized in the assays.
(§11) This medium was buffered with 0.165 M 2-(N-morpholino) propane sulfonic acid (MOPS), a non-chelating buffer.
(§12) Antimicrob. Agents Cheroother. Aug. 34.8:1542-1545).
(§13) The inoculum was prepared from an overnight broth culture (a 48-hour culture only for Cryptococcus) in Sabouraud broth and appropriately diluted to yield a final suspension containing approximately 5.0×10^6 Colony Forming Units per ml (CFU/ml), when compared to the Mc Farland's standard control (BRAY W. E., Clinical Laboratory Methods, 5th Ed. C. V. MOSBY, St. Louis, Mo, 1957).
(§14) After further diluting (1:50), a […] volume of such fungal suspensions and an equal volume of the substance solutions were distributed into each well of a microtiter plate (96 wells, round bottom). Such a procedure eventually allowed for an "in vitro" antimycotic activity assay utilizing final fungal inocula of approximately 5.0×10^4 CFU/ml.

[8] = system: Candida pseudotropicalis (EC 1); assay: MIC for yeast and yeast-like strains; assay type: cell-based; details: Kluyveromyces marxianus; 48 hours, 35° C.; read-out: Minimal Inhibitory Concentration (MIC)
Procedure: as §9, §10, §11, §12, §13, §14

[9] = system: Candida guilliermondii (ISS 1); assay: MIC for yeast and yeast-like strains; assay type: cell-based; details: Meyerozyma guilliermondii; 48 hours, 35° C.; read-out: Minimal Inhibitory Concentration (MIC)
Procedure: as §9, §10, §11, §12, §13, §14

[10] = system: Cryptococcus neoformans (ISS 1); assay: MIC for yeast and yeast-like strains; assay type: cell-based; details: 48 hours, 35° C., read-out: Minimal Inhibitory Concentration (MIC)
Procedure: as §9, §10, §11, §12, §13, §14

[11] = system: Candida tropicalis (ISS 1); assay: MIC for yeast and yeast-like strains; assay type: cell-based; details: 48 hours, 35° C., read-out: Minimal Inhibitory Concentration (MIC)
Procedure: as §9, §10, §11, §12, §13, §14

[12] = system: Candida parapsilosis (ISS 1); assay: MIC for yeast and yeast-like strains; assay type: cell-based; details: Lodderomyces parapsilosis; 48 hours, 35° C.; read-out: Minimal Inhibitory Concentration (MIC)
Procedure: as §9, §10, §11, §12, §13, §14

[13] = system: Candida glabrata (ISS 1); assay: MIC for yeast and yeast-like strains; assay type: cell-based; details: Nakaseomyces glabratus; 48 hours, 35° C.; read-out: Minimal Inhibitory Concentration (MIC)
Procedure: as §9, §10, §11, §12, §13, §14

[14] = system: Candida albicans (ATCC 2091); assay: MIC for yeast and yeast-like strains; assay type: cell-based; details: ATCC2091, 48 hours, 35° C., read-out: Minimal Inhibitory Concentration (MIC)
Procedure: as §9, §10, §11, §12, §13, §14

[15] = system: Candida albicans (PG); assay: MIC and MFC for yeast and yeast-like strains; assay type: cell-based; details: 48 hours, 35° C., read-out: Minimal Inhibitory Concentration (MIC)
Procedure: as §9, §10, §11, §12, §13, §14
(§15) The minimal fungicidal concentration was evaluated by spot-transferring onto Petri dishes, containing Sabouraud agar, 0.01-ml volumes of all the samples showing no visible fungal growth.

[16] = system: dermatophytic fungi; assay: MIC / MFC for dermatophytic fungi, all strains; assay type: cell-based, Trichophyton, Microsporum, Epidermophyton; details: versus susceptible strains
Procedure: as §1, §2, §3, §4

[17] = system: Mucor mucedo (ATCC 7941); assay: MIC for filamentous fungi; assay type: cell-based; details: ATCC7941, read-out: Minimal Inhibitory Concentration (MIC)
Text: as §5, §6, §7, §8

[18] = system: Aspergillus fumigatus (ATCC 28212); assay: MIC for filamentous fungi; assay type: cell-based; details: ATCC28212, read-out: Minimal Inhibitory Concentration (MIC)
Text: as §5, §6, §7, §8

[19] = system: Penicillium sp. (1302); assay: MIC for filamentous fungi; assay type: cell-based; details: read-out: Minimal Inhibitory Concentration (MIC)
Text: as §5, §6, §7, §8

[20] = system: Fusarium sp. (ISS 1); assay: MIC for filamentous fungi; assay type: cell-based; details: read-out: Minimal Inhibitory Concentration (MIC)
Text: as §5, §6, §7, §8

[21] = system: Aspergillus fumigatus (C/1); assay: MIC for filamentous fungi; assay type: cell-based; details: read-out: Minimal Inhibitory Concentration (MIC)
Text: as §5, §6, §7, §8

[22] = system: Aspergillus fumigatus (1/A); assay: MIC for filamentous fungi; assay type: cell-based; details: read-out: Minimal Inhibitory Concentration (MIC)
Text: as §5, §6, §7, §8

[23] = system: Aspergillus fumigatus (2/A); assay: MIC for filamentous fungi; assay type: cell-based; details: read-out: Minimal Inhibitory Concentration (MIC)
Text: as §5, §6, §7, §8

[24] = system: Aspergillus niger (ATCC 16404); assay: MIC for filamentous fungi; assay type: cell-based; details: ATCC16404, read-out: Minimal Inhibitory Concentration (MIC)
Text: as §5, §6, §7, §8

[25] = system: Torulopsis candida (D.S.); assay: MIC for yeast and yeast-like strains; assay type: cell-based; details: Suzukiozyma candida; 48 hours, 35° C.; read-out: Minimal Inhibitory Concentration (MIC)
Procedure: as §9, §10
(§16) This medium was buffered with 0.165 M 2-(N-morpholino) propane sulfonic acid (MOPS), a non-chelating buffer. […]
as §13, §14

[26] = system: Saccharomyces cerevisiae (ATCC 7752); assay: MIC for yeast and yeast-like strains; assay type: cell-based; details: ATCC7752, 48 hours, 35° C., read-out: Minimal Inhibitory Concentration (MIC)
Procedure: as §9, §10, §16, §13, §14

[27] = system: Candida albicans (A 54); assay: MIC for yeast and yeast-like strains; assay type: cell-based; details: 48 hours, 35° C., read-out: Minimal Inhibitory Concentration (MIC)
Procedure: as §9, §10, §16, §13, §14

[28] = system: Cryptococcus neoformans (4711); assay: MIC for yeast and yeast-like strains; assay type: cell-based; details: 48 hours, 35° C., read-out: Minimal Inhibitory Concentration (MIC)
Procedure: as §9, §10, §16, §13, §14

[29] = system: Candida krusei (ISS 1); assay: MIC for yeast and yeast-like strains; assay type: cell-based; details: Pichia kudriavzevii; 48 hours, 35° C.; read-out: Minimal Inhibitory Concentration (MIC)
Procedure: as §9, §10, §16, §13, §14

[30] = system: Candida albicans (562); assay: MIC for yeast and yeast-like strains; assay type: cell-based; details: 48 hours, 35° C., read-out: Minimal Inhibitory Concentration (MIC)
Procedure: as §9, §10, §16, §13, §14

[31] = system: Candida tropicalis (5705); assay: MIC for yeast and yeast-like strains; assay type: cell-based; details: 48 hours, 35° C., read-out: Minimal Inhibitory Concentration (MIC)
Procedure: as §9, §10, §16, §13, §14

[32] = system: yeast-like fungi; assay: MIC / MFC for yeast-like fungi, all strains; assay type: cell-based, Candida, Cryptococcus, Saccharomyces, Torulopsis; details: versus susceptible strains; read-out: Mean MIC values
Procedure: as §9, §10, §16, §13, §14, §15

With `Clc1ccc(COC(Cn2ccnc2)c2ccc(Cl)cc2Cl)c(Cl)c1` (centres unmarked) [Miconazole, reference compound] the CFU/mouse [1] was “sterile and 3.60 × 10^1 CFU/mouse and 8.10 × 10^1 CFU/mouse”.
`CCCCCCCCCCCCCOC(=O)C[C@H](C[N+](C)(C)C)OC(=O)CC(C)C` [ST 1033] was tested, and the MIC [2] was 6.25 µg/mL, the MIC [3] was 12.5 µg/mL and the MIC [4] was 6.25 µg/mL. For the same compound, the MIC [5] was 25 µg/mL, the MIC [6] was 3.9 µg/mL and the MIC [7] was 1.56 µg/mL. The MIC [8] was 3.12 µg/mL, the MIC [9] was 6.25 µg/mL and the MIC [10] was 1.56 µg/mL. For the same compound, the MIC [11] was 3.12 µg/mL, the MIC [12] was 3.12 µg/mL and the MIC [13] was 3.12 µg/mL. It also gave an MIC [14] of 3.12 µg/mL, an MIC [15] of 3.12 µg/mL and an MIC [16] of 12.5 µg/mL. The MIC [17] was 6.25 µg/mL, the MIC [18] was 3.12 µg/mL and the MIC [19] was 3.12 µg/mL. The MIC [20] was 3.12 µg/mL, the MIC [21] was 3.12 µg/mL and the MIC [22] was 3.12 µg/mL. It also gave an MIC [23] of 3.12 µg/mL, an MIC [24] of 6.25 µg/mL and an MIC [25] of 3.12 µg/mL. It also gave an MIC [26] of 3.12 µg/mL, an MIC [27] of 1.56 µg/mL and an MIC [28] of 0.78 µg/mL. For the same compound, the MIC [29] was 3.12 µg/mL, the MIC [30] was 1.56 µg/mL and the MIC [31] was 3.12 µg/mL. For the same compound, the MIC [32] was 2.7 µg/mL.
